In paper PMC8958504 (Journal of Medicinal Chemistry, 2022):
Values joined by “and” are separate entries in the source; they are usually repeats but may differ in a detail not shown here. Equal values may be shown once. Read-outs that look alike come from different tables or passages of the source.

Assays:
hMAO-A = biological target: T1, hMAO-A (Homo sapiens, UniProt P21397); test: biochemical; conditions: for IC50: read-out: hMAO-A (IC50), recombinant hMAO-A, p-tyramine substrate
T1 sequence (P21397 1-527): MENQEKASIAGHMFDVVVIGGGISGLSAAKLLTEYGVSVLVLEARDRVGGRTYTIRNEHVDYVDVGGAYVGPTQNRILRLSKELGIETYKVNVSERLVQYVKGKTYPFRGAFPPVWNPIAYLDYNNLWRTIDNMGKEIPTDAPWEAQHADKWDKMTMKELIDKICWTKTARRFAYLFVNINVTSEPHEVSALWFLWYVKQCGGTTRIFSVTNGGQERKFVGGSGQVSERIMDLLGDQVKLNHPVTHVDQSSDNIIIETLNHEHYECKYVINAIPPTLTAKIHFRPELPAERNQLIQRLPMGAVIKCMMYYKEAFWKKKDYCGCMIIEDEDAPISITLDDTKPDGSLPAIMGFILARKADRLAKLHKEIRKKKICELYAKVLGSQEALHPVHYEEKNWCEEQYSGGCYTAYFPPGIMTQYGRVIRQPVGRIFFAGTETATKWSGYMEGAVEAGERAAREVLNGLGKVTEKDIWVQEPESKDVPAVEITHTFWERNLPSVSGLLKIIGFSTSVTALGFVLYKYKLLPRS
Method: (§1) The hMAO-A/B inhibition of all compounds was determined using the Amplex Red MAO assay kit.
(§2) Assays were performed following the general procedure previously described.[98] […] The specific fluorescence emission was calculated after subtracting the background activity, which was determined from wells containing all components except the hMAO isoforms, which were replaced with PBS.

hMAO-B = biological target: T2, hMAO-B (Homo sapiens, UniProt P27338); test: biochemical; conditions: for IC50: read-out: hMAO-B (IC50), recombinant hMAO-B, p-tyramine substrate; for inhibition at 50 µM: read-out: hMAO-B percentage of inhibition (in brackets)
T2 sequence (P27338 1-520): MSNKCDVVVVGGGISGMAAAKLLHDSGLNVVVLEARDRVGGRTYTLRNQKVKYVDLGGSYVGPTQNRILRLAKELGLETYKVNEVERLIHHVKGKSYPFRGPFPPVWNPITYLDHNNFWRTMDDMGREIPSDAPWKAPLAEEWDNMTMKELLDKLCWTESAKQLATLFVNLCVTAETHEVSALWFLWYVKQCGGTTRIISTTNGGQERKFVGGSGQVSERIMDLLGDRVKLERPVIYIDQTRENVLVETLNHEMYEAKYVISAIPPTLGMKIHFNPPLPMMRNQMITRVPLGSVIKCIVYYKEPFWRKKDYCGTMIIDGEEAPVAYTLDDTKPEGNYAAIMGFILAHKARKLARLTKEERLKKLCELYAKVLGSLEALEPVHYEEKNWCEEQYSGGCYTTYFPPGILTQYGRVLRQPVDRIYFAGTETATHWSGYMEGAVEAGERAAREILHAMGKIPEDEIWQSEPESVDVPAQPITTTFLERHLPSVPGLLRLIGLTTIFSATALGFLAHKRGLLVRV
Method: as §1, §2

[1] = Oxygen radical absorbance capacity (ORAC-FL) assay; conditions: trolox = 1.0
Method: 2,2′-Azobis-(amidinopropane) dihydrochloride (AAPH), trolox, and fluorescein (FL) were purchased from Sigma-Aldrich. The reaction was carried out in a 75 mM phosphate buffer (pH 7.4), and the final reaction mixture was 200 μL. […] Antioxidant curves (fluorescence vs time) were first normalized to the curve of the blank corresponding to the same assay, and the area under the curve (AUC) of fluorescence decay was calculated. The net AUC corresponding to a sample was calculated by subtracting the AUC corresponding to the blank. Regression equations between the net AUC and antioxidant concentration were calculated for all the samples.

in vitro = in vitro ADME; conditions: for Papp at 240 min, 100 μg mL^–1: PAMPA; for PAMPA-BBB (Pe, 10^–6 cm s^–1): porcine brain lipid
[2] = test system: NRF2-ARE signaling pathway; test: cells; assay type: cell-based; conditions: for NRF2 (CD, μM): concentration required to double luciferase activity, AREc32 cells, 24 h; for EC (2-fold induction): Arec32, 24 h, read-out: NRF2 (CD, μM), concentration required to double luciferase activity, AREc32 cells, 24 h
Method: AREc32 cells were plated in 96-well white plates (2 × 10^4 cells/well). […]. The AREc32 cells constitutively express the plasmid pGL-8xARE that implements eight copies of the EpRE sequences, followed by the luciferase reporter gene. Therefore, NRF2 induction is related to the activation of EpRE sequences, expressing luciferase at the same extent as EpRE sequences are activated. The Luciferase Assay System (Promega E1500) was used according to the provider’s protocol, and luminescence was quantified in an Orion II microplate luminometer (Berthold, Germany). Fold induction of luciferase activity was normalized to basal conditions. Data are expressed as CD values, expressing the concentration required to double the luciferase activity. CD values were calculated from dose–response curves generated from the fold induction of control conditions versus inducer concentration and fitted by nonlinear regression and data interpolated to twofold induction concentration.[68]

QR2 = biological target: T3, QR2 (Mesocricetus auratus, UniProt A0ABM2YAB8); test: biochemical
T3 sequence (A0ABM2YAB8 1-231): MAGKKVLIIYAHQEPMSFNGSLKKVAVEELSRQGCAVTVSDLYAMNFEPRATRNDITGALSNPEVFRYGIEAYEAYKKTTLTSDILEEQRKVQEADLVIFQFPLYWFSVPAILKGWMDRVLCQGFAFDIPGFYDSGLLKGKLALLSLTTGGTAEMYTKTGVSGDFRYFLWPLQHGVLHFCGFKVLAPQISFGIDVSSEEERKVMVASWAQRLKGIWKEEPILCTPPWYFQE
Method: The QR2 experiments were performed in membrane homogenates of hamster brains (https://www.eurofins.fr, catalog ref. 0088). […] First, radioligand displacement was measured at a fixed compound concentration (10 μM) in each receptor.

[3] = pH 7.4, class from PAMPA-BBB Pe, read-out: CNS-permeability prediction
[4] = PBS/EtOH (70:30), 240 min, 25 °C

Compound	IC50 (hMAO-A)	IC50 (hMAO-B)	ORAC (trolox equiv) [1]	Papp at 240 min, 100 μg mL^–1 (in vitro; [3])	PAMPA-BBB (Pe, 10^–6 cm s^–1) (in vitro; [4])	inhibition at 50 µM (hMAO-B)	NRF2 (CD, μM) [2]	IC50 (QR2)	EC (2-fold induction) [2]	inhibition at 50 µM (hMAO-A; read-out: hMAO-A percentage of inhibition (in brackets))	Papp at 240 min, 100 μg mL^–1 (in vitro; pH 7.4, porcine brain lipid, PBS/EtOH (70:30), 240 min, 25 °C, read-out: PAMPA-BBB)	Papp at 240 min, 100 μg mL^–1 (in vitro; pH 7.4, PAMPA standards, mean ± SD of three experiments, read-out: Permeability Pe, Exp)
C#CCNC(=O)/C=C/c1ccc(O)cc1 [6m, (2E)-3-(4-Hydroxyphenyl)-N-(prop-2-yn-1-yl)prop-2-enamide]	> 50 µM	31.1 ± 1.57 µM	3.0 ± 0.2 trolox equiv									
O=c1[nH]nc(/C=C/c2ccc3c(c2)OCO3)o1 [2i, 5-[(E)-2-(2H-1,3-Benzodioxol-5-yl)ethenyl]-1,3,4-oxadiazol-2(3H)-one]	> 50 µM	27.6 ± 0.9 µM	<0.1 trolox equiv	2 to 4 ×10⁻⁶ cm/s	3.8 ± 0.2 10^–6 cm s^–1							
C#CCNC/C=C/c1ccc(O)c(OC)c1 [8n, 2-Methoxy-4-{(1E)-3-[(prop-2-yn-1-yl)amino]prop-1-en-1-yl}phenol]	30.3 ± 2.5 µM	> 50 µM	2.1 ± 0.2 trolox equiv	> 4 ×10⁻⁶ cm/s	8.7 10^–6 cm s^–1 and 8.7 ± 0.6 10^–6 cm s^–1	45%	22.3 ± 2.9 µM	0.2 ± 0.04 µM				
COc1ccc(/C=C/c2n[nH]c(=O)o2)cc1OC [2h, 5-[(E)-2-(3,4-Dimethoxyphenyl)ethenyl]-1,3,4-oxadiazol-2(3H)-one]	> 50 µM	> 50 µM	<0.1 trolox equiv	2 to 4 ×10⁻⁶ cm/s	2.4 ± 0.3 10^–6 cm s^–1				> 60 µM			
C#CCNC(=O)/C=C/c1ccc(O)c(OC)c1 [6n, (2E)-3-(4-Hydroxy-3-methoxyphenyl)-N-(prop-2-yn-1-yl)prop-2-enamide]	> 50 µM	> 50 µM	0.5 ± 0.03 trolox equiv	< 2 ×10⁻⁶ cm/s	≤ 0.5 10^–6 cm s^–1	33%	>60 µM		> 60 µM	33%	< 2 ×10⁻⁶ cm/s	
C[S+]([O-])CCCCN=C=S (stereo not drawn) [sulforaphane, reference compound]							1.24 ± 0.28 µM		1.24 µM			
C#CCNC(=O)/C=C/c1cccc(C#N)c1 [6b, (2E)-3-(3-Cyanophenyl)-N-(prop-2-yn-1-yl)prop-2-enamide]	> 50 µM	> 50 µM	<0.1 trolox equiv						> 60 µM			
COc1ccc(/C=C/c2n[nH]c(=O)o2)c(OC)c1 [2f, 5-[(E)-2-(2,4-Dimethoxyphenyl)ethenyl]-1,3,4-oxadiazol-2(3H)-one]	> 50 µM	> 50 µM	0.6 ± 0.08 trolox equiv	2 to 4 ×10⁻⁶ cm/s	3.6 ± 0.2 10^–6 cm s^–1							
COc1cc(/C=C/c2n[nH]c(=O)o2)cc(OC)c1 [2j, 5-[(E)-2-(3,5-Dimethoxyphenyl)ethenyl]-1,3,4-oxadiazol-2(3H)-one]	> 50 µM	> 50 µM	<0.1 trolox equiv	2 to 4 ×10⁻⁶ cm/s	2.1 ± 0.2 10^–6 cm s^–1			0.51 ± 0.05 µM				
C#CCNC(=O)/C=C/c1ccc(OC)cc1 [6e, (2E)-3-(4-Methoxyphenyl)-N-(prop-2-yn-1-yl)prop-2-enamide]	> 50 µM	> 50 µM	<0.1 trolox equiv									
O=c1[nH]nc(/C=C/c2cc(O)cc(O)c2)o1 [3p, 5-[(E)-2-(3,5-Dihydroxyphenyl)ethenyl]-1,3,4-oxadiazol-2(3H)-one]	> 50 µM	> 50 µM	1.9 ± 0.1 trolox equiv	< 2 ×10⁻⁶ cm/s	≤ 0.1 10^–6 cm s^–1				> 60 µM			
COc1cc(/C=C/c2n[nH]c(=O)o2)cc(OC)c1OC [2k, 5-[(E)-2-(3,4,5-Trimethoxyphenyl)ethenyl]-1,3,4-oxadiazol-2(3H)-one]	> 50 µM	> 50 µM	<0.1 trolox equiv	< 2 ×10⁻⁶ cm/s	≤ 0.5 10^–6 cm s^–1							
C[C@]12CCC(=O)C=C1CC[C@@H]1[C@@H]2[C@@H](O)C[C@]2(C=O)[C@@H](C(=O)CO)CC[C@@H]12 [Aldosterone, reference compound]												3.1 ± 0.2 ×10⁻⁶ cm/s
N#Cc1cccc(/C=C/c2n[nH]c(=O)o2)c1 [2b, 3-[(E)-2-(5-Oxo-4,5-dihydro-1,3,4-oxadiazol-2-yl)ethenyl]benzonitrile]	> 50 µM	> 50 µM	<0.1 trolox equiv	> 4 ×10⁻⁶ cm/s	4.5 ± 0.3 10^–6 cm s^–1	38%	13.7 ± 2.2 µM		13.7 µM			
COc1ccc2[nH]cc(CCNC(C)=O)c2c1 [melatonin, reference compound]								0.077 ± 0.001 µM				
O=c1[nH]nc(/C=C/c2ccc(O)c(O)c2)o1 [3o, 5-[(E)-2-(3,4-Dihydroxyphenyl)ethenyl]-1,3,4-oxadiazol-2(3H)-one]	3.4 ± 0.2 µM	5.8 ± 0.4 µM	1.7 ± 0.1 trolox equiv	< 2 ×10⁻⁶ cm/s	≤ 0.2 10^–6 cm s^–1		21.3 ± 1.6 µM					
COc1ccc(OC)c(/C=C/c2n[nH]c(=O)o2)c1 [2g, 5-[(E)-2-(2,5-Dimethoxyphenyl)ethenyl]-1,3,4-oxadiazol-2(3H)-one]	> 50 µM	> 50 µM	<0.1 trolox equiv	2 to 4 ×10⁻⁶ cm/s	3.0 ± 0.2 10^–6 cm s^–1							
C#CCNC(=O)/C=C/c1cccc(O)c1 [6l, (2E)-3-(3-Hydroxyphenyl)-N-(prop-2-yn-1-yl)prop-2-enamide]	> 50 µM	> 50 µM	3.0 ± 0.3 trolox equiv									
